# Reference: US6391880B1, “Heterocyclic compounds useful as oxido-squalene cyclase inhibitors” (Zeneca Limited, priority 1997, dated 2002)
# Tests used:
# [1] = target: T1, rat microsomal oxido-squalene cyclase (Rattus norvegicus, UniProt P48450); assay: In vitro test to measure inhibition of oxido-squalene cyclase; assay type: biochemical; details: at a concentration of 0.1 μM; rat liver microsomes
# T1 construct: Microsomes are prepared from rat liver according to methods known in the art; from tissue; host or cells: rat liver microsomes
# T1 sequence (P48450 1-733): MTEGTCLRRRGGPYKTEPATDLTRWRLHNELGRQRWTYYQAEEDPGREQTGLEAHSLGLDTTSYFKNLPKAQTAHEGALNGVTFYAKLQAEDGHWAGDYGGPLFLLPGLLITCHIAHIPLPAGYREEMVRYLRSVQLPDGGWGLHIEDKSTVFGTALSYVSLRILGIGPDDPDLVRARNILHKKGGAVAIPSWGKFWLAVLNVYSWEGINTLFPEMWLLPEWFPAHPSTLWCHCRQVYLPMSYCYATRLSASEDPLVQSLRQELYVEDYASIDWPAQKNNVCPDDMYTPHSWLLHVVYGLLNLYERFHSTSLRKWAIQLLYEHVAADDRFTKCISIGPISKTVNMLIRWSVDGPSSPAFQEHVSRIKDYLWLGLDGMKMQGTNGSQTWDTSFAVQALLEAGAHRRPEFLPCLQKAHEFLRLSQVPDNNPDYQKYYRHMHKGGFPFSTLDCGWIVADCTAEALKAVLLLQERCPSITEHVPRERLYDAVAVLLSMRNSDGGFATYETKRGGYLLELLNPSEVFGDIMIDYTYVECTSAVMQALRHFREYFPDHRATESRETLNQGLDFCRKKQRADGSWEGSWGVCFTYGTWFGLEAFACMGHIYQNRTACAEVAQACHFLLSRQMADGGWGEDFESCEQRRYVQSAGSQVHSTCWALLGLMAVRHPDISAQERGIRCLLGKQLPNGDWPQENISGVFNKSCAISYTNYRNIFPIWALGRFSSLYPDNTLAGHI
# Experimental: (a) In Vitro Test to Measure Inhibition of Oxido-Squalene Cyclase
# This test measures the inhibition of microsomal oxido-squalene cyclase in vitro by compounds at set concentrations in the incubation medium.
# Microsomes are prepared from rat liver according to methods known in the art, for example, the method described in published European Patent Application No 324,421 and stored in liquid nitrogen prior to assay. Assay vials are kept at 37° C. throughout the incubation. The microsomes typically contain 15-20 mg of protein per ml of microsomes. For assay, 1 ml of microsomes are diluted by the addition of 722 μl of 50 mM phosphate buffer pH 7.4.
# Phosphate buffered Tween 80 (polyoxyethylene sorbitan […]) is prepared by adding 0.1 g Tween 80 to 100 ml of 50 mM phosphate buffer.
# A stock solution of oxido-squalene is made up as a solution in ethanol (0.65 mg. ml.^−1). 18 μl of radio-labelled oxido-squalene (1 μCi.ml^−1) is evaporated to dryness under a stream of nitrogen and redissolved in 1 ml of ethanol and 1 ml of the stock solution of oxido-squalene is added.
# The test compound is dissolved in dimethyl sulphoxide to give a 10^−4M stock solution. […]
# The samples are then placed in a water bath at 80° C. for 2 hours to saponify. […] Reaction rate is measured as the conversion of oxido-squalene to lanosterol, and the effects of test compounds are expressed as an inhibition of this process.
# [2] = tested on: rat cholesterol biosynthesis; assay: In vivo test to measure inhibition of oxido-squalene cyclase / cholesterol biosynthesis in the rat; details: dosed at 2 mg/kg, oral
# Experimental: (b) In Vivo Test to Measure Inhibition of Oxido-Squalene Cyclase
# The ability of a compound to inhibit oxido-squalene cyclase and/or inhibit cholesterol biosynthesis may be assessed by a routine laboratory procedure carried out in the rat. The test involves administration of the compound to rats on a reversed lighting regimen. Female rats (35-55 g) are housed in reverse lighting conditions (red light from 0200 h-1400 h) for a period of about 2 weeks prior to test. Animals are allowed free access to chow and drinking water throughout this period. At test, animals should weigh 100-140 g. The rats are dosed orally with the compound (typically 10-50 mg/kg) formulated in apolyethylene glycol/hydroxypropylmethyl cellulose mix. After 1 hour the rats are given […] sodium mevalonate (15 μCi/kg) intraperitoneally. Two hours after administration of the compound the rats are terminated and a piece of liver removed and weighed. The tissue is saponified at 80° C. for 2 hours in an ethanolic/potassium hydroxide solution (80% w/v aqueous KOH diluted 1:10 with ethanol). Water (2 ml) is added and the mixture extracted with iso-hexane (2×5 ml). The organic extracts are combined, evaporated to dryness under a stream of nitrogen and the residue is dissolved in a mixture of acetonitrile/iso-propanol (300 μl). […] The radio-label content of each fraction is assessed using a radio chemical flow detector. […]
melting point [°C],SMILES,inhibition of rat microsomal oxido-squalene cyclase [1],inhibition of rat cholesterol biosynthesis [2]
154 to 155,O=C(C1CCN(S(=O)(=O)c2ccc(Br)cc2)CC1)N1CCC(c2ccncc2)CC1,,
,O=C(N1CCC(c2ccncc2)CC1)N1CCN(S(=O)(=O)c2ccc(Br)cc2)CC1 [Example 2],about 94%,about 85%
